Laboratory results as given in patent US11618747B2, “LXR modulators with bicyclic core moiety” (OrsoBio, Inc., priority 2018, dated 2023).

Legend:
[1] = molecular target: T1, ligand-binding domain (LBD) of LXRβ (Homo sapiens, UniProt P55055, DUP175-175); experiment: LXR Gal4 reporter transient transfection assay (LBD-M2H Gal4β); format: cell-based; details: HEK293 cells, LXRβ LBD; read-out: LBD-M2H Gal4β (EC50 range)
T1 construct: LXRβ (amino acids 156-461); expressed in transfected cells; host or cells: HEK293
T1 sequence (P55055 with tags, fused parts or gaps DUP175-175 limits assumed): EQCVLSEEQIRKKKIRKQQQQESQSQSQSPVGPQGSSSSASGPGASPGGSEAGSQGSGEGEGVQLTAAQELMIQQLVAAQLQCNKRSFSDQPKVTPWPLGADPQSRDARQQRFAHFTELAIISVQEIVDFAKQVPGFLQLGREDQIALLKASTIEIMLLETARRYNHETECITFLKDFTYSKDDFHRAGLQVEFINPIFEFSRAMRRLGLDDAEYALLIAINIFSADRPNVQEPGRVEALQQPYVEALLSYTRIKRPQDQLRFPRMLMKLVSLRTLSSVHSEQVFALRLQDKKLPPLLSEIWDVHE
Procedure: (§1) The tested compounds were usually dissolved, tested and stored as 20 mM stock solutions in DMSO. Since sulfonyl acetic acid derivatives tend to decarboxylate under these conditions, these stock solutions were prepared, tested and stored as 20 mM DMSO stock solutions containing 100 mM trifluoroacetic Acid (5 equivalents). Sulfonyl acetic acid derivatives are shelf stable as solid at rt for long time as reported by Griesbrecht et al. (Synlett 2010:374) or Faucher et al. (J. Med. Chem. 2004; 47:18).
(§2) LXR Gal4 Reporter Transient Transfection Assays
(§3) LXRα and LXRβ activity status was determined via detection of interaction with coactivator and corepressor proteins in mammalian two-hybrid experiments (M2H). For this, via transient transfection the full length (FL) proteins of LXRα (amino acids 1-447; NP005684; SEQ ID NO:1) or LXRβ-(amino acids 1-461; NP009052; SEQ ID NO:2) or the ligand-binding domains (LBD) of LXRα (amino acids 155-447 SEQ ID NO:3) or LXRβ (amino acids 156-461; SEQ ID NO:4) were expressed from pCMV-AD (Stratagene) as fusions to the transcriptional activation domain of NFkB. As cofactors, domains of either the steroid receptor coactivator 1 (SRC1; amino acids 552-887; SEQ ID NO:5) or of the corepressor NCoR (amino acids 1906-2312; NP006302; SEQ ID NO:6) were expressed as fusions to the DNA binding domain of the yeast transcription factor GAL4 (from pCMV-BD; Stratagene). Interaction was monitored via activation of a coexpressed Firefly Luciferase Reporter gene under control of a promoter containing repetitive GAL4 response elements (vector pFRLuc; Stratagene). Transfection efficiency was controlled via cotransfection of constitutively active pRL-CMV Renila reniformis luciferase reporter (Promega). HEK293 cells were grown in minimum essential medium (MEM) with 2 mM L-glutamine and Earle's balanced salt solution supplemented with 8.3% fetal bovine serum, 0.1 mM non-essential amino acids, 1 mM sodium pyruvate, at 37° C. in 5% CO2. 3.5×10^4 cells/well were plated in 96-well cell culture plates in growth medium supplemented with 8.3% fetal bovine serum for 16-20 h to ˜90% confluency. For transfection, medium was taken off and LXR and cofactor expressing plasmids as well as the reporter plasmids are added in 30 μL OPTIMEM/well including polyethylene-imine (PEI) as vehicle. Typical amounts of plasmids transfected/well: pCMV-AD-LXR (5 ng), pCMV-BD-cofactor (5 ng), pFR-Luc (100 ng), pRL-CMV (0.5 ng). Compound stocks were prepared in DMSO, prediluted in MEM to a total volume of 120 μL, and added 4 h after addition of the transfection mixture (final vehicle concentration not exceeding 0.2%). Cells were incubated for additional 16 h, lysed for 10 min in 1× Passive Lysis Buffer (Promega) and Firefly and Renilla luciferase activities were measured sequentially in the same cell extract using buffers containing D-luciferine and coelenterazine, respectively. Measurements of luminescence were done in a BMG-luminometer.

[2] = molecular target: T2, ligand-binding domain (LBD) of LXRα (Homo sapiens, UniProt Q13133); experiment: LXR Gal4 reporter transient transfection assay (LBD-M2H Gal4α); format: cell-based; details: HEK293 cells, LXRα LBD; read-out: LBD-M2H Gal4α (EC50 range)
T2 construct: expressed in transfected cells; host or cells: HEK293
T2 sequence (Q13133 155-447): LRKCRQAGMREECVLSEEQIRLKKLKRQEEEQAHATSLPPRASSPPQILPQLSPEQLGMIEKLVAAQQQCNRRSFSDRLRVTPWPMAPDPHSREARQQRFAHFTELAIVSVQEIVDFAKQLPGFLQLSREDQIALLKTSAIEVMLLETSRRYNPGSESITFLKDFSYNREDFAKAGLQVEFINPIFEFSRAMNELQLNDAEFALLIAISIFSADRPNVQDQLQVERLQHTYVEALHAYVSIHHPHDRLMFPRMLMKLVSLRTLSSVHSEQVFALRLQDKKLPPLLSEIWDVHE
Procedure: as §1, §2, §3

[3] = molecular target: T3, LXRβ ligand-binding domain (Homo sapiens, UniProt P55055, DUP175-175); experiment: TR-FRETβ activity assay (NCoA3 coactivator peptide recruitment); format: biochemical; details: TR-FRET, 1 μM 24(S)-25-epoxycholesterol prestimulation; read-out: FRETβ (EC50 range)
T3 construct: amino acids 156-461; NP009052; made in house; host or cells: E. coli
T3 sequence (P55055 with tags, fused parts or gaps DUP175-175 limits assumed): T1 sequence (P55055 with tags, fused parts or gaps DUP175-175 limits assumed)
Summary of the method: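 GST-tagged human LXRβ LBD (aa 156-461, E. coli) at 76 nM with 400 nM biotinylated NCoA3 peptide in Tris/HCl pH 6.8, 240 mM KCl, BSA, 0.002% Triton-X-100, plus 1 μM 24(S)-25-epoxycholesterol as prestimulating agonist. Compounds at 50 μM down to 0.002 μM, 1 h at 4 °C. Coactivator recruitment by TR-FRET (Tb cryptate/XL665, 615/665 nm), triplicates.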

Row | Compound | EC50 [1] [nM] | EC50 [2] [nM] | EC50 [3] [nM]
1 | Cc1ccc(S(=O)(=O)n2c(-c3ccsc3)c(-c3ccsc3C#N)c3ccccc32)cc1 [1/23] | < 100 | < 100 | 100 to 1000
2 | Cc1cc(C)c(S(=O)(=O)n2c(-c3cccs3)c(-c3ccsc3C#N)c3ccccc32)c(C)c1 [1/26] | < 100 | 100 to 1000 | 1000 to 10000
3 | N#Cc1sccc1-c1c(-c2cccs2)n(S(=O)(=O)c2cccc3ccccc23)c2ccccc12 [1/27] | < 100 | 100 to 1000 | 1000 to 10000
4 | Cn1cnc(S(=O)(=O)n2c(-c3cccs3)c(-c3ccsc3C#N)c3ccccc32)c1 [1/28] | < 100 | 100 to 1000 | 1000 to 10000
5 | COc1ccc2c(c1)c(-c1ccsc1C#N)c(-c1cccs1)n2S(=O)(=O)c1ccc(Cl)cc1 [1/39] | – | 1000 to 10000 | > 10000
6 | COc1ccc2c(-c3ccsc3C#N)c(-c3cccs3)n(S(=O)(=O)c3ccc(Cl)cc3)c2c1 [1/40] | < 100 | 100 to 1000 | 1000 to 10000
7 | N#Cc1sccc1-c1c(-c2ccccc2)n(S(=O)(=O)c2cccnc2)c2ccccc12 [1/41] | < 100 | 100 to 1000 | 1000 to 10000
8 | Cc1ncc(S(=O)(=O)n2c(-c3ccccc3)c(-c3ccsc3C#N)c3ccccc32)s1 [1/42] | < 100 | < 100 | 1000 to 10000
9 | N#Cc1sccc1-c1c(-c2cccc(N3CC(C(=O)O)C3)c2)n(S(=O)(=O)c2ccccc2)c2ccc(F)cc12 [3/9] | < 100 | 100 to 1000 | 1000 to 10000
10 | Cc1ccc(S(=O)(=O)n2c(-c3ccc(CC(C)(C)C(=O)O)s3)c(-c3ccsc3C#N)c3ccccc32)cc1 [3/16] | 100 to 1000 | 100 to 1000 | 1000 to 10000
11 | Cc1ccc(S(=O)(=O)n2c(-c3cc(C4CC4C(=O)O)cs3)c(-c3ccsc3C#N)c3ccccc32)cc1 (centres unmarked) [3/17] | < 100 | 100 to 1000 | 1000 to 10000
12 | Cc1ccc(S(=O)(=O)n2c(-c3cccc(/C=C/C(=O)O)c3)c(-c3ccsc3C#N)c3ccccc32)cc1 [3/18] | < 100 | 100 to 1000 | 1000 to 10000
13 | Cc1ccc(S(=O)(=O)n2c(-c3ccc(/C=C/C(=O)O)s3)c(-c3ccsc3C#N)c3ccccc32)cc1 [3/19] | 100 to 1000 | 100 to 1000 | 1000 to 10000
14 | Cc1ccc(S(=O)(=O)n2c(-c3cccc(C(C)(C)C(=O)O)c3)c(-c3ccsc3C#N)c3ccccc32)cc1 [3/20] | < 100 | 100 to 1000 | 1000 to 10000
15 | N#Cc1sccc1-c1c(-c2cccc(OCC(=O)O)c2)n(S(=O)(=O)c2ccc(Cl)cc2)c2ccccc12 [3/51] | 100 to 1000 | 100 to 1000 | 1000 to 10000
16 | N#Cc1sccc1-c1c(-c2cccs2)n(S(=O)(=O)c2ccc(Cl)cc2)c2cc(O)ccc12 [13/1] | < 100 | < 100 | 1000 to 10000
17 | N#Cc1sccc1-c1c(-c2cccs2)n(S(=O)(=O)c2ccc(Cl)cc2)c2ccc(OCCCC(=O)O)cc12 [15/1] | 100 to 1000 | 100 to 1000 | 1000 to 10000

Row | Compound | EC50 [1] [nM] | EC50 [2] [nM] | EC50 [3] [nM]
18 | N#Cc1sccc1-c1c(-c2cccs2)n(S(=O)(=O)c2ccc(Cl)cc2)c2ccc(OCCCCC(=O)O)cc12 [15/2] | 100 to 1000 | 100 to 1000 | > 10000
19 | N#Cc1sccc1-c1c(-c2cccs2)n(S(=O)(=O)c2ccc(Cl)cc2)c2cc(OCCCC(=O)O)ccc12 [15/4] | < 100 | 100 to 1000 | 1000 to 10000
20 | N#Cc1sccc1-c1c(-c2cccs2)n(S(=O)(=O)c2ccc(Cl)cc2)c2cc(OCCCCC(=O)O)ccc12 [15/5] | < 100 | < 100 | 1000 to 10000
21 | N#Cc1ccncc1-c1c(-c2cccs2)n(S(=O)(=O)c2ccc(Cl)cc2)c2ccccc12 [20/2] | < 100 | 100 to 1000 | 1000 to 10000
22 | O=S(=O)(c1ccc(Cl)cc1)n1c(-c2cccs2)c(-c2ccsc2C(F)F)c2ccccc21 [20/3] | < 100 | < 100 | 100 to 1000
23 | N#Cc1cscc1-c1c(-c2cccs2)n(S(=O)(=O)c2ccc(Cl)cc2)c2ccccc12 [20/4] | < 100 | < 100 | 1000 to 10000
24 | CS(=O)(=O)c1ccccc1-c1c(-c2cccs2)n(S(=O)(=O)c2ccc(Cl)cc2)c2ccccc12 [20/5] | 100 to 1000 | 100 to 1000 | 1000 to 10000
25 | N#Cc1cc(F)ccc1-c1c(-c2cccs2)n(S(=O)(=O)c2ccc(Cl)cc2)c2ccccc12 [20/6] | < 100 | 100 to 1000 | 100 to 1000
26 | N#Cc1nccnc1-c1c(-c2cccs2)n(S(=O)(=O)c2ccc(Cl)cc2)c2ccccc12 [20/7] | < 100 | 100 to 1000 | 1000 to 10000
27 | N#Cc1sccc1-c1c(-c2cccs2)n(S(=O)(=O)c2ccc(F)cc2)c2ccccc12 [20/11] | < 100 | < 100 | 100 to 1000
28 | N#Cc1sccc1-c1c(-c2cccs2)n(S(=O)(=O)c2ccc(F)cc2F)c2ccccc12 [20/12] | < 100 | < 100 | 1000 to 10000
29 | N#Cc1sccc1-c1c(-c2cccs2)n(S(=O)(=O)c2ccc(Cl)cc2)c2ccccc12 [20/13] | < 100 | < 100 | 100 to 1000
30 | COc1ccc(S(=O)(=O)n2c(-c3ccccc3)c(C3=C(C#N)CCCC3)c3ccccc32)cc1 [20/16] | 100 to 1000 | 100 to 1000 | 1000 to 10000
31 | COc1ccc(S(=O)(=O)n2c(-c3ccccc3)c(-c3c(C#N)sc4ccccc34)c3ccccc32)cc1 [20/18] | < 100 | 100 to 1000 | –
32 | COc1ccc(S(=O)(=O)n2c(-c3ccccc3)c(C3=C(C#N)c4ccccc4CC3)c3ccccc32)cc1 [20/19] | 100 to 1000 | 100 to 1000 | > 10000
33 | Cc1ccc(S(=O)(=O)n2c(-c3cccc(-c4cncc(C(C)(C)C(=O)O)c4)c3)c(-c3ccsc3C#N)c3ccccc32)cc1 [30/3] | 100 to 1000 | 100 to 1000 | –
34 | Cc1ccc(S(=O)(=O)n2c(-c3cccc(-c4cccc(C(=O)NS(C)(=O)=O)c4)c3)c(-c3ccsc3C#N)c3ccccc32)cc1 [Example 32, 3′-(3-(2-Cyanothiophen-3-yl)-1-tosyl-1H-indol-2-yl)-N-(methylsulfonyl)-[1,1′-biphenyl]-3-carboxamide] | 100 to 1000 | – | 100 to 1000
